Patent US5618836A, “[4-(1,2-epoxycyclohexanyl)but-3-en-1-ynyl]aromatic and heteroaromatic acids and derivatives having retinoid-like biological activity” (Allergan, priority 1995, dated 1997)

Assays:
[1] = system: ornithine decarboxylase (ODC); experiment: Inhibition of TPA induction of ornithine decarboxylase (ODC) activity; format: in vivo; settings: inhibition of TPA-induced ODC; assay essentially per Cancer Res: 1662-1670, 1975
Source text: The retinoid-like activity of these compounds is confirmed through the classic measure of retinoic acid activity involving the effects of retinoic acid on ornithine decarboxylase. The original work on the correlation between retinoic acid and decrease in cell proliferation was done by Verma & Boutwell, Cancer Research, 1977, 37,2196-2201. That reference discloses that ornithine decarboxylase (ODC) activity increased precedent to polyamine biosynthesis. It has been established elsewhere that increases in polyamine synthesis can be correlated or associated with cellular proliferation. Thus, if ODC activity could be inhibited, cell hyperproliferation could be modulated. Although all causes for ODC activity increases are unknown, it is known that 12-O-tetradecanoylphorbol-13-acetate (TPA) induces ODC activity.

[2] = system: ornithine decarboxylase (ODC); settings: in words; background statement; cited from earlier work

SMILES	IC80 [1] [nM]	inhibition of induction of ODC activity by TPA [2]
CCOC(=O)c1ccc(C#C/C=C/C23OC2(C)CCCC3(C)C)nc1 (racemic) [Compound 5, Ethyl (±)-6-[(3E)-4-(1,2-Epoxy-2,6,6-trimethylcyclohexanyl)but-3-en-1-ynyl)nicotinate]	1.07	
CC1=C(/C=C/C(C)=C/C=C/C(C)=C/C(=O)O)C(C)(C)CCC1 [Retinoic acid]		inhibits this induction of ODC activity by TPA
CC1(C)CCCC2(C)OC12/C=C/C#Cc1ccc(C(=O)O)cc1 (racemic) [Compound 1, (±)-4-[(3E)-4-(1,2-Epoxy-2,6,6-trimethylcyclohexan-yl)but-3-en-1-ynyl)]benzoic acid]	4.8	
CC1(C)CCCC2(C)OC12/C=C/C#Cc1ccc(C(=O)O)cn1 (racemic) [Compound 4, (±)-6-[(3E)-4-(1,2-Epoxy-2,6,6-trimethylcyclohexan-yl)but-3-en-1-ynyl)]nicotinic acid]	21	
CC1(C)CCCC2(C)OC12/C=C/C#Cc1ccc(C(=O)O)s1 (racemic) [Compound 3, (±)-5-[(3E)-4-(1,2-Epoxy-2,6,6-trimethylcyclohexan-yl)but-3-en-1-ynyl)]-2-thiophenecarboxylic acid]	22.3	
CCOC(=O)c1ccc(C#C/C=C/C23OC2(C)CCCC3(C)C)s1 (racemic) [Compound 6, Ethyl(±)-5-[(3E)-4-(1,2-Epoxy-2,6,6-trimethylcyclohexanyl)but-3-en-1-ynyl)]-2thiophenecarboxylate]	16	
